The test has as its target T1, TNKS2 (Homo sapiens, UniProt Q9H2K2).
T1 construct: purchased BPS Bioscience, San Diego, USA 80572 (TNKS2 Histone Ribosylation Assay Kit)
T1 sequence (Q9H2K2 1-1166): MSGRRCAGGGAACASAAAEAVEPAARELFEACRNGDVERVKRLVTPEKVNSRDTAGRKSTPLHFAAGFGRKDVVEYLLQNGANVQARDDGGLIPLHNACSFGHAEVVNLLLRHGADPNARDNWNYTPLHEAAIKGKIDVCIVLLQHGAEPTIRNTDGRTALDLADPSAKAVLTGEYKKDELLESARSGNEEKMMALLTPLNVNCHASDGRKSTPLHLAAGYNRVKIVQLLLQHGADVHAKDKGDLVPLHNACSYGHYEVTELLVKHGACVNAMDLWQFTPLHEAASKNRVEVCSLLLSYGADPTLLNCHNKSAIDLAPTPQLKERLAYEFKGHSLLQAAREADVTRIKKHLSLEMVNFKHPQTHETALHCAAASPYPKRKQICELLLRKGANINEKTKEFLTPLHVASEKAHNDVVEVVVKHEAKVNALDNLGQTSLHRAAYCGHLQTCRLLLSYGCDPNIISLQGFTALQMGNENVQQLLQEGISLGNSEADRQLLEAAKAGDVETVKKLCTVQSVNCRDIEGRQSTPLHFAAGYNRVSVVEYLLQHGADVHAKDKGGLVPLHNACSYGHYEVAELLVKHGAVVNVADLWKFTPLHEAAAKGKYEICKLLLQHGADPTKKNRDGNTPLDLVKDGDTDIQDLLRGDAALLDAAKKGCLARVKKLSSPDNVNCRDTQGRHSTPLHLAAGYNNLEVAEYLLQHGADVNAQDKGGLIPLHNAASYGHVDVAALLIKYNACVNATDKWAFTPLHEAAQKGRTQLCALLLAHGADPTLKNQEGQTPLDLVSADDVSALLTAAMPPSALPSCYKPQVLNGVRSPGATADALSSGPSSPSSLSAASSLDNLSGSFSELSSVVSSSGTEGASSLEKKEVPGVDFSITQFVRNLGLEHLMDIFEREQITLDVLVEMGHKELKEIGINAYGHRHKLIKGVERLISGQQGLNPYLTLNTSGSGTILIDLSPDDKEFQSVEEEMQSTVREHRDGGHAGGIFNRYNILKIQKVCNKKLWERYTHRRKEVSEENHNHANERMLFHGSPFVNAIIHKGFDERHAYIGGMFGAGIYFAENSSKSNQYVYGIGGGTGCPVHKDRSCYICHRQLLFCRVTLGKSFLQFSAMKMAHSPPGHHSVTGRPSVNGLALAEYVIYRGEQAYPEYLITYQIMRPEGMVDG
Kind of test: TNKS2 Assay B (auto-parsylation, [3H]-NAD+ SPA). Particulars: 6 nM TNKS2, auto-parsylation, over night at room temperature. In kind it is biochemical.

The values that follow come from patent US20180148418A1, “AMIDO-SUBSTITUTED CYCLOHEXANE DERIVATIVES” (Bayer Pharma Aktiengesellschaft, priority 2015, published 2018).

The structures appear in SMILES notation. Where a name gives a salt, the structure may show the parent alone.

What is called IC50 is the midpoint of a concentration-inhibition curve. High values mean a need for much substance, low ones inhibition by little substance.

`CNC(=O)c1[nH]cnc1C(=O)NC1CCC(C(=O)Nc2ccc(F)cc2Cl)CC1C` (racemic) [Example 39, N^4-{4-[(2-chloro-4-fluorophenyl)carbamoyl]-2-methylcyclohexyl}-N^5-methyl-1H-imidazole-4,5-dicarboxamide] came in with an IC50 of 100 nM.
With `Cc1c(C(C)N(C)C)cnc2c(C(=O)N[C@H]3CC[C@H](C(=O)Nc4ccc(F)cc4Cl)CC3)cnn12` (mixture of isomers) [Example 55, N-{trans-4-[(2-chloro-4-fluorophenyl)carbamoyl]cyclohexyl}-6-[1-(dimethylamino)ethyl]-7-methylpyrazolo[1,5-a]pyrimidine-3-carboxamide formic acid salt] the figure was 490 nM.
`O=C(NCCN1CCCCC1)c1nc[nH]c1C(=O)N[C@H]1CC[C@H](C(=O)Nc2ccc(F)cc2Cl)CC1` [Example 2, N^5-{trans-4-[(2-chloro-4-fluorophenyl)carbamoyl]cyclohexyl}-N^4-[2-(piperidin-1-yl)ethyl]-1H-imidazole-4,5-dicarboxamide] registered an IC50 of 230 nM.
For `CNC(C)c1cnc2c(C(=O)N[C@H]3CC[C@H](C(=O)Nc4ccc(F)cc4Cl)CC3)cnn2c1C` (stereo partly drawn) [Example 54, N-{trans-4-[(2-chloro-4-fluorophenyl)carbamoyl]cyclohexyl}-7-methyl-6-[1-(methylamino)ethyl]pyrazolo[1,5-a]pyrimidine-3-carboxamide formic acid salt], the concentration for half-maximal inhibition (IC50) was 680 nM.
`COCC(C)NC(=O)c1nc[nH]c1C(=O)N[C@H]1CC[C@H](C(=O)Nc2cc(N3CCOCC3)ccc2Cl)CC1` (stereo partly drawn) [Example 91, N^5-(trans-4-{[2-chloro-5-(morpholin-4-yl)phenyl]carbamoyl}cyclohexyl)-N^4-(1-methoxypropan-2-yl)-1H-imidazole-4,5-dicarboxamide] showed an IC50 of 6800 nM.
